# Reference: patent publication US20060094020A1, “Methods and compositions for determining resistance or susceptibility of HIV-1 to stavudine” (priority 2004, published 2006)
# System: HIV-1 (patient-derived viruses comprising the K65R mutation in RT)
# Test: Resistance test vector (PHENOSENSE) phenotypic drug susceptibility assay, luciferase readout, single round of replication in 293 cells
# Type: cell-based
# Details: 1.7 fold is the threshold for d4T resistance
# Protocol: In preferred embodiments, the phenotypic analysis of d4T resistance or susceptibility is performed using PHENOSENSE™ (ViroLogic Inc., South San Francisco, Calif.). See Petropoulos et al., 2000, Antimicrob. Agents Chemother. 44:920-928; U.S. Pat. Nos. 5,837,464 and 6,242,187. PHENOSENSE™ is a phenotypic assay that achieves the benefits of phenotypic testing and overcomes the drawbacks of previous assays. Because the assay has been automated, PHENOSENSE™ provides high throughput methods under controlled conditions for determining replication capacity of a large number of individual viral isolates.
# The assay can be performed by first co-transfecting host cells with RTV DNA and a plasmid that expresses the envelope proteins of another retrovirus, for example, amphotropic murine leukemia virus (MLV). Following transfection, viral particles can be harvested from the cell culture and used to infect fresh target cells in the presence of varying amounts of anti-viral drug(s). The completion of a single round of viral replication in the fresh target cells can be detected by the means for detecting replication contained in the vector. […] The susceptibility of an HIV, or population of HIV, can be determined by measuring the concentration of antiviral drug at which the luciferase activity detected is half-maximal. […]
compound,measurement,setting,value
"Cc1cn([C@H]2C=C[C@@H](CO)O2)c(=O)[nH]c1=O [d4T, stavudine]",IC50 fold higher than wild-type,most of the viruses comprising only the K65R mutation in RT (202 viruses),less than 1.7 fold
same,IC50 fold higher than wild-type,some of the viruses comprising only the K65R mutation in RT (202 viruses),greater than 1.7 fold
